Entries after “also recorded” stand apart in the source; their conditions may differ. Ends that are not written are not given here.
Key:
rats = assay: Acoustic startle response after TCAP-1 injection; assay type: in vivo, rat
Excerpt: Male Wistar rats (250-275 g), were surgically implanted with cannulae (23 gauge) bilaterally into the basolateral nuclei of the amydala (AP −2.8, ML +/−5.0, DV −7.2 mm, from bregma). One week later, the animals were habituated to the acoustic startle reflex (ASR) chambers (MED Associates, grid rod cage measuring 7.5″×3.6″×4.2″), consisting of 25 trials of 120 dB stimuli presented randomly with an inter-stimulus interval of 55-65 seconds, duration of 30 msecs and frequency of 5000 Hz. The same stimulus conditions were used for test days, which consisted of a 25 trial baseline, injection with mouse TCAP-1 (with amidation signal)[SEQ. ID. NO. 40] or vehicle (0.25 μl/side, flow rate 0.5 μl/min), and testing for a further 60 trials post-drug. Each rat received vehicle treatment on the first test day then TCAP-1 (e.g. mouse TCAP-1) in a random and counter balanced fashion in subsequent test days, spaced 48 h apart. On the final test day, all rats again received vehicle treatment. Following histological analysis of cannulae placements, the data of eight rats was retained for statistical analysis.
From the data, rats were divided into high and low anxiety groups depending upon their treatment/baseline ratio for the vehicle. Animals that scored less than one were considered low anxiety, those scoring more than one were considered high anxiety. There were four animals in each anxiety group.

Gn11 cells [1] = assay: cAMP accumulation in Gn11 immortalized neurons (Example 12); assay type: cell-based, mouse
Experimental: (§1) Gn11 immortalized neurons were cultured as previously reported (Tellam et al., 1998) Direct cAMP measurements were performed with the nonacetylated version of a commercial kit (Assay Designs, Ann Arbor, Mich.). After starved by serum-free DMEM for 1 hr and replaced with fresh DMEM without serum, cells were treated for 15 min with TCAP, urocortin or vehicle±CRFR1 antagonist PD171729 in the continued presence of forskolin (1_M) and IBMX (100_M. Protein assays: Total protein was determined using the BCA protein assay method (Pierce Co). MTT Assays: Gn11 cells were seeded into 96-well plates and cultured in full serum DMEM until the cells were 30% confluent. Vehicle, 1 nM, 10 nM or 100 nM TCAP-1 were added into each group (n=8). (FIG. 25A) The MTT assay (Sigma Chemicals) was performed at 0, 6, 12, 24 and 48 hours. Flow Cytometry: DNA content of the Gn11 cells was quantified by staining with propridium iodide and analyzed on a FACSCAN flow cytometer (Beckman Instruments).

Gn11 cells [2] = assay: Total protein, BCA protein assay, Gn11 cells; assay type: cell-based, mouse; conditions: 1, 10 and 100 nM, after 120 minutes
Experimental: as §1

Gn11 cells [3] = assay: MTT assay, Gn11 cells; assay type: cell-based, mouse; conditions: 48 hours
Experimental: as §1

Gn11 cells [4] = assay: Flow cytometry DNA content analysis, Gn11 cells; assay type: cell-based, mouse; conditions: after 24 hours
Experimental: as §1

N38 hypothalamic cells = assay: Microarray gene expression in N38 hypothalamic cells; assay type: cell-based, mouse; conditions: 1 nM
Experimental: Total RNA (TRNA) was isolated from 3 independent treated and untreated N38 hypothalamic cell cultures, pooled (to reduce the noise), utilizing Trizol Reagent (GIBCO/BRL) following the manufacturer's protocol. The quality of total RNA was assessed using an Agilent 2100 Bioanalyzer (version A.02.01S1232, Agilent Technologies). Only RNA with the OD ratio of 1.99-2.0 at 260/280 was used.
Hybridizations were performed on the Mouse MU74Av2 GeneChip Set (Affymetrix, Santa Clara, Calif.). Samples were prepared for hybridization according to Affymetrix instructions. Briefly, a primer encoding the T7 RNA polymerase promoter linked to oligo-dT17 was used to prime double-stranded cDNA synthesis from each mRNA sample using Superscript II RNase H^− reverse transcriptase (Life Technologies, Rockville, Md.). Each purified (Qiaquick kit, Qiagen) double-stranded cDNA was in vitro transcribed using T7 RNA polymerase (T7 kit; Enzo), incorporating biotin-UTP and biotin-CTP (Enzo Biochemicals, New York, N.Y.) into the cRNAs, followed by purification using RNEasy (Qiagen) and quantitated by measuring absorption at 260 nm/280 nm. Samples were fragmented and hybridized to the Chip for 16 h at 45° C. and scanned (GeneArray scanner, Affymetrix). MicroArray Suite Version 5 (MASv5; Affymetrix) was used to scale intensities across the Genechips to 150 fluorescence units, and to determine expression values for each gene on the chip. The expression value for each gene was determined by calculating the average of differences (perfect match intensity minus mismatch intensity) of the probe pairs in use for the gene.
Gene analysis software: Data analysis was performed using two independent softwares, GeneChip and GeneSpring. To identify differentially expressed transcripts, pairwise comparison analyses were carried out with MicroArray Suite Version 5 MicroArray Suite Version 5 (MASv5; Affymetrix). This approach, which is based on the Mann-Whitney pairwise comparison test, allows the ranking of results by concordance, as well as the calculation of significance (P value) of each identified change in gene expression. Statistically significant genes (P<0.05) were selected for further analysis. Moreover, statistically significant changes in mean expression values were determined by importing the data from MASv5 into GeneSpring 5 (Silicon Genetics, Redwood City, Calif.). A stepwise process was followed, first with normalizations. A per-chip followed by a per-gene normalization in order to facilitate direct comparison of biological differences. Next, a second method of filter using Affymetrix data and p value with cut-off of P<0.005 generated 4,841 genes which were used for subsequent analysis utilizing Hierarchical Clustering, k-means, Self Organization Map (SOM) utilizing GeneSpring 5.0.
RNAs isolated from treated and untreated cells were analyzed on oligonucleotide arrays representing 12,884 mouse genes (Affymetrix, http://www.affymetrix.com). Standard filtering (p<0.005) and hierarchical clustering algorithm (average linage method: GeneSpring software—Silicon Genetics) identified significant changes in the expression of 4, 841/12,885 genes with 166 genes showing 1.5 fold down-regulation and 35 genes up-regulation in the TCAP-1-treated cells compared to the untreated cells. […] A G-protein coupled receptor-related signal transduction pathway is indicated by the regulation of genes, CREM, AKAP8, AKAP95 and PDE6A. […] The upregulation in inducible nitric oxide (INOS), a intracellular voltage-gated chloride channel (CLCN3) and the serotonin transporter (SLC6A4) may reflect the down stream actions of cAMP-mediated signal cascade and indicates the potential for TCAP to be involved in neuronal signaling systems. A role in interneuron communication by TCAP is also indicated by the modulation of genes associated with the regulation of vesicle trafficking. […]

[5] = micro injected into the basolateral amygdala, 3, 30, 300 pmoles
[6] = 16 hours, relative to untreated control
[7] = treated compared to untreated cells

TCAP-1: synthetic mouse teneurin-1 C-terminal associated peptide, SEQ. ID. NO: 37 or 38, with amidation signal (QQLLGTGRVQGYDGYFVLSVEQYLELSDSANNIHFMRQSEIGRR-NH2)
acoustic startle response (rats; administration into the lateral ventricle or amygdala of rats): normalized the acoustic startle response
relation of effect on startle response to baseline startle response (rats; amygdala-injected, FIG. 24): inversely proportional to the baseline startle response
startle magnitude, animals with high treatment-to-baseline ratio (>1) (rats; [5]): significant (p<0.05) decrease
startle magnitude, animals with low treatment-to-baseline ratio (<1) (rats; [5]): significant (p, 0.05) and does dependent increase
increase of cAMP levels over the vehicle-treated cells (Gn11 cells [1]; 1 nM, 15 minutes): 45%
cAMP accumulation at 1 nM (in words) (Gn11 cells [1]; 1 nM, FIG. 25A/B): increased cAMP
cAMP accumulation at 10 nM (in words) (Gn11 cells [1]; 10 nM, FIG. 25A): without effect
decrease of cAMP accumulation from control cells (Gn11 cells [1]; 100 nM, 15 minutes): 40%
cAMP accumulation at 100 nM (in words) (Gn11 cells [1]; 100 nM, FIG. 25A): decreased (p<0.05) cAMP
total protein concentration (Gn11 cells [2]): significant increase; also recorded: stimulated protein synthesis
MTT activity (mitochondrial activity) at 1 nM (Gn11 cells [3]; 1 nM): significant (p<0.05) increase; also recorded: increased MTT activity
MTT activity (mitochondrial activity) at 100 nM (Gn11 cells [3]; 100 nM): decrease; also recorded: decreased (p<0.05) MTT activity
incidence of G1 phase at 1 nM (Gn11 cells [4]; 1 nM): reduced (p<0.05) the incidence of G1 phase
incidence of G1 phase at 100 nM (Gn11 cells [4]; 100 nM): increased (p<0.05) G1 phase
Fold change AKAP8 (A kinase anchor protein 8) (N38 hypothalamic cells; [6]): 1.58 fold
Fold change AKAP95 (A kinase anchor protein 95) (N38 hypothalamic cells; [6]): 0.60 fold
Fold change ALK3 (Bone morphogenic protein receptor) (N38 hypothalamic cells; [6]): 0.60 fold
Fold change AP4S1 (Adaptor related protein complex) (N38 hypothalamic cells; [6]): 1.52 fold
Fold change ARF1 (ADP ribosylation factor 1) (N38 hypothalamic cells; [6]): 0.63 fold
Fold change BARK1 (β adrenergic receptor kinase 1) (N38 hypothalamic cells; [6]): 0.61 fold
Fold change BMP4 (Bone morphogenic protein-4) (N38 hypothalamic cells; [6]): 0.52 fold
Fold change CAII (Casein kinase II) (N38 hypothalamic cells; [6]): 0.61 fold
Fold change CAMIII (Calmodulin III) (N38 hypothalamic cells; [6]): 0.53 fold
Fold change CD95 (Fas antigen) (N38 hypothalamic cells; [6]): 0.61 fold
Fold change CLCN3 (Chloride channel protein 3) (N38 hypothalamic cells; [6]): 1.66 fold
Fold change CLM2-B (Cytohesin-2) (N38 hypothalamic cells; [6]): 0.63 fold
Fold change CRD-BP (CRD-binding protein) (N38 hypothalamic cells; [6]): 0.59 fold
Fold change CREMβ1 (cAMP-responsive element modulator) (N38 hypothalamic cells; [6]): 1.61 fold
Fold change DIP1/2 (DAB2 interacting protein) (N38 hypothalamic cells; [6]): 0.68 fold
Fold change ERK1 (Mitogen activated protein kinase) (N38 hypothalamic cells; [6]): 0.64 fold
Fold change FNBX (Ferredoxin-NADP reductase) (N38 hypothalamic cells; [6]): 1.61 fold
Fold change GAS5 (Growth arrest specific transcript) (N38 hypothalamic cells; [6]): 0.46 fold
Fold change GBP3 (Guanylate binding protein) (N38 hypothalamic cells; [6]): 0.63 fold
Fold change GDAP10 (Ganglioside induced diff. protein 10) (N38 hypothalamic cells; [6]): 1.62 fold
Fold change GP25L2 (gp25L brings cargo forward from ER) (N38 hypothalamic cells; [6]): 1.53 fold
Fold change GR (Glucocorticoid receptor) (N38 hypothalamic cells; [6]): 0.66 fold
Fold change IL1R (Interleukin 1 receptor) (N38 hypothalamic cells; [6]): 0.60 fold
Fold change INI1B (Integrase interacting protein 1B) (N38 hypothalamic cells; [6]): 0.48 fold
Fold change INOS (Inducible nitric oxide synthetase) (N38 hypothalamic cells; [6]): 1.50 fold
Fold change MKI67 (Cell cycle protein regulator) (N38 hypothalamic cells; [6]): 1.70 fold
Fold change MMP1 (Matrix metalloproteinase 1) (N38 hypothalamic cells; [6]): 0.55 fold
Fold change MMP10 (Matrix metalloproteinase 10) (N38 hypothalamic cells; [6]): 0.59 fold
Fold change MOP3 (Circadian rhythm regulator) (N38 hypothalamic cells; [6]): 1.57 fold
Fold change P202 (202 interferon activatable protein) (N38 hypothalamic cells; [6]): 0.61 fold
Fold change P204 (Interferon activatable protein) (N38 hypothalamic cells; [6]): 1.85 fold
Fold change PCDHγ (protocadherin γ) (N38 hypothalamic cells; [6]): 0.42 fold
Fold change PDE6A (cGMP Phosphodiesterase α) (N38 hypothalamic cells; [6]): 1.68 fold
Fold change PPAN (Peter Pan homologue) (N38 hypothalamic cells; [6]): 0.62 fold
Fold change PTK7 (Receptor protein tyrosine kinase) (N38 hypothalamic cells; [6]): 1.53 fold
Fold change RAB10 (Ras oncogene homologue) (N38 hypothalamic cells; [6]): 1.62 fold
Fold change SDPR (Serum deprivation response protein) (N38 hypothalamic cells; [6]): 0.57 fold
Fold change SLC6A4 (Serotonin transporter) (N38 hypothalamic cells; [6]): 1.53 fold
Fold change SSG1 (Steroid sensitive gene 1) (N38 hypothalamic cells; [6]): 0.62 fold
Fold change ST7 (Suppressor of tumourigenicity) (N38 hypothalamic cells; [6]): 1.97 fold
Fold change TTF-1IP (TTF-1 interacting peptide) (N38 hypothalamic cells; [6]): 0.50 fold
Fold change YIPID (Rab-mediated membrane transport) (N38 hypothalamic cells; [6]): 1.88 fold
number of genes showing 1.5 fold down-regulation (N38 hypothalamic cells; [7]): 166 genes
number of genes showing up-regulation (N38 hypothalamic cells; [7]): 35 genes

Reference: US8088889B2, “Teneurin c-terminal associated peptides (TCAP) and uses thereof” (priority 2002, dated 2012)
